From patent US9547001B2, “Antibody specific for trans-resveratrol and use thereof” (IP Science Limited, priority 2011, dated 2017)
Where “and” joins values, the source holds several entries; their conditions need not be identical. Equal entries are not always repeated.

What was measured:
Type in all cases: in vivo
[1] = HPLC-MS measurement of tRV in human serum after 1 mg tRV in 200 ml red wine (wine study); settings: sum of 1 h + 2 h + 4 h + 6 h + 8 h, one value per volunteer
Procedure: The same volunteers also participated in a wine study. The same “wash out” period was used, and the same timing of the experiment was applied. Instead of taking a capsule of tRV each of the volunteers consumed 200 ml of red wine, which was selected on a basis that it would contain 1 mg of tRV in this volume. The rest of the Protocol employed was the same as above.
After taking blood, serum was separated, aliquoted and stored at −80° C. for further testing.

[2] = anti-tRV ELISA measurement of tRV in human serum after 1 mg tRV in 200 ml red wine (wine study); settings: sum of 1 h + 2 h + 4 h + 6 h + 8 h, one value per volunteer
Procedure: (§1) 2 ml of ethyl acetate was added to 0.5 ml of serum sample, then mixed on a vortex for 3 minutes, followed by centrifugation for 2 minutes at 500 r/min. The upper layer of ethyl acetate was transferred into a new tube. To the remaining lower water fraction a second portion of 2 ml ethyl acetate was added and the extraction procedure was repeated. The new ethyl acetate fraction was added to the old one, giving a total volume of 4 ml, which was then dried by air flow at 60° C., using a Reacti-Therm™III, Thermo scientific, USA.[…]. 40 μl of ethanol was then added and mixed on vortex, then 160 μl of PBS with 0.5% BSA was added and mixed again. This final solution was used for the analysis described below.
RV-BSA was pre-absorbed on microplate wells in 0.1M carbonate buffer, pH=9.5 (at a concentration of 5 μg/ml) overnight at 4° C. […]
(§2) The plate was washed out four times with PBST, and then a chromogeninc substrate was added, tetramethylbenzidine+H2O2. After stopping the reaction with 1M H2SO4, optic density was read at λ450 nm, Multiscan EX (<<Thermo>>, USA).
Inhibition by free tRV of the binding of serum antibodies with immobolised RV-BSA (Kin) was calculated according to the following formula: Kin=100−(A450D/A450C−)×100, where: • A450D is the optic density in samples with free tRV (testing serum or samples from the calibrating curve), • A450 C is the an optic density without free tRV. […]

[3] = HPLC-MS measurement of tRV in human serum after 100 mg tRV capsule (nutraceutical study)
Procedure: (§3) The group of 5 volunteers comprised of 2 female and 3 male clinically healthy Caucasian persons, age between 23 and 35 years.
(§4) They were asked, before commencing this experiment, to go for 3-4 days “wash-out”, when consumption of any grape, wine, peanut, chocolate and other products which might contain them.
(§5) In the morning of the experiment, one hour after light breakfast, volunteers were given 1 gelatine capsule containing 100 mg of tRV.
(§6) Blood samples were taken from their median cubital or cephalic veins at the baseline point. Then, after administration of tRV, their blood was taken again at the following time points: 30 minutes, 1 hour, 2, 3, 4, 6 and 8 hours.
(§7) After taking blood its serum was separated, aliquoted and stored at −80° C. for further testing.

[4] = anti-tRV ELISA measurement of tRV in human serum after 100 mg tRV capsule (nutraceutical study)
Procedure: as §1
RV-BSA was pre-absorbed on microplate wells in 0.1M carbonate buffer, pH=9.5 (at a concentration of 5 μg/ml) overnight at 4° C. After washing four times the PBST plate was blocked with PBS contacting 1% of Top Block (<<Yuro>>, Switzerland).
For the calibrating curve different concentrations of tRV were added into the wells. The stock solution used was 1 mg/ml of tRV diluted in PBST with 0.5% BSA and 20% ethanol. 50 μl of each serum extract to be tested were added to parallel wells. After which 50 μl of the conjugate of HRP with monoclonal anti-tRV antibodies was added to all the wells. The content of the wells was mixed using a shaker for 1 minute and then the plate was then incubated for 1 hour at +37° C.
as §2
Inhibition by free tRV of the binding of serum antibodies with immobolised RV-BSA (Kin) was calculated according to the following formula: Kin=100−(A450D/A450C−)×100, where: • A450D is the optic density in samples with free tRV (testing serum or samples from the calibrating curve), • A450 C is the an optic density without free tRV.
as §3, §4, §5, §6, §7

[5] = 1 h after 100 mg tRV, volunteers 1 and 2
[6] = 2 h after 100 mg tRV, volunteers 1 and 2
[7] = human serum, 100 mg tRV dietary supplement, sum of 30 min + 1 h + 2 h + 3 h + 4 h + 6 h + 8 h, one value per volunteer
[8] = human, serum, oral, 100 mg, 1 h after 100 mg tRV, volunteers 1 and 2
[9] = human, serum, oral, 100 mg, 2 h after 100 mg tRV, volunteers 1 and 2

- Concentration of tRV in serum as a sum of 5 separate measurements, HPLC-MS [1]: 6 ng/ml and 572 ng/ml and 0 ng/ml (3×)
- Concentration of tRV in serum, HPLC-MS [3, 5]: 0.097 µg/mL
- Concentration of tRV in serum, HPLC-MS [3, 6]: 0.021 µg/mL
- concentration at 1 h [3, 8]: 0.065 µg/mL
- concentration at 2 h [3, 9]: 0.012 µg/mL
- Concentration of tRV in serum, ELISA ([4]; 30 min after 100 mg tRV, volunteers 1 and 2): 0.09 µg/mL
- Concentration of tRV in serum, ELISA [4, 5]: 0.49 µg/mL
- Concentration of tRV in serum, ELISA [4, 6]: 0.255 µg/mL
- Concentration of tRV in serum, ELISA ([4]; 3 h after 100 mg tRV, volunteers 1 and 2): 0.01 µg/mL
- Concentration of tRV in serum, ELISA ([4]; 4 h after 100 mg tRV, volunteers 1 and 2): 0.195 µg/mL
- Concentration of tRV in serum, ELISA ([4]; 6 h after 100 mg tRV, volunteers 1 and 2): 0.62 µg/mL
- concentration at 30 min ([4]; human, serum, oral, 100 mg, 30 min after 100 mg tRV, volunteers 1 and 2): 0.14 µg/mL
- concentration at 1 h [4, 8]: 0.65 µg/mL
- concentration at 2 h [4, 9]: 0.21 µg/mL
- concentration at 3 h ([4]; human, serum, oral, 100 mg, 3 h after 100 mg tRV, volunteers 1 and 2): 0.02 µg/mL
- concentration at 4 h ([4]; human, serum, oral, 100 mg, 4 h after 100 mg tRV, volunteers 1 and 2): 0.135 µg/mL
- concentration at 6 h ([4]; human, serum, oral, 100 mg, 6 h after 100 mg tRV, volunteers 1 and 2): 0.42 µg/mL
Structure (SMILES): Oc1ccc(/C=C/c2cc(O)cc(O)c2)cc1 [tRV, trans-Resveratrol]
- Concentration of tRV in serum as a sum of 5 separate measurements, ELISA [2]: 0.31 µg/mL and 0.85 µg/mL and 0.12 µg/mL and 0.46 µg/mL and 0.38 µg/mL
- Concentration of tRV in serum as a sum of 7 separate measurements, HPLC-MS [3, 7]: 0.098 µg/mL and 0.139 µg/mL and 0.079 µg/mL and 0.037 µg/mL and 0.107 µg/mL
- Concentration of tRV in serum as a sum of 7 separate measurements, ELISA [4, 7]: 1.6 µg/mL and 1.9 µg/mL and 1.07 µg/mL and 0.795 µg/mL and 1.412 µg/mL
